Two compounds from patent US20230226018A1, “APPLICATION OF COMPOUND USING INTRA-CYCLIC PEROXO-BRIDGED SESQUITERPENES AS PARENT NUCLEUS IN METABOLISM-RELATED FATTY LIVER DISEASES” (SHANGHAI JIAO TONG UNIVERSITY, priority 2021, published 2023) can be followed below.

In assay [1] the test system is C57 mice fed with 10% lard and 5% fructose. The assay is described as follows: Expression of lipid metabolism-related genes in liver tissue of mice on high-fat and high-sugar diet. To be noted: artemisinin 100 mg/kg for 12 weeks, FIGS. 10A-10I. The format is in vivo. How it is done:
C57 mice were selected and fed with feedstuffs that were added with 10% lard and 5% fructose. After 12 weeks, the mice suffered from liver metabolism disruption, generated insulin resistance, and were stuck in mitochondrial dysfunction in liver cells, thus resulting in a decrease in fatty acid β-oxidation capacity and fat accumulation in the liver, and inflammation and fibrosis were produced. Artemisinin was given at a dosage of 100 mg/kg from the 13th week as a treatment for 12 weeks. At the end of the experiment, the mice were dissected to obtain livers. A part of the livers was subjected to HE staining and Oli red O staining to quantify the liver lipids and conduct a pathological scoring of liver steatosis of the mice based on the steatosis activity fibrosis (SAF) scoring system. […] A part of the livers of the mice in each group mentioned above was taken, RNA and protein were extracted, and the study of the expression of related genes and proteins was conducted to detect the expression levels of lipid metabolism-related genes in liver tissue.

Assay [2] has the same test system. In words: Expression of autophagy-related proteins (TOR, LC3) in liver of mice on high-fat and high-sugar diet. It is filed as in vivo. The following applies: artemisinin 100 mg/kg for 12 weeks, FIGS. 11A-11G. As for the experimental part: (§1) C57 mice were selected and fed with feedstuffs that were added with 10% lard and 5% fructose. After 12 weeks, the mice suffered from liver metabolism disruption, generated insulin resistance, and were stuck in mitochondrial dysfunction in liver cells, thus resulting in a decrease in fatty acid β-oxidation capacity and fat accumulation in the liver, and inflammation and fibrosis were produced. Artemisinin was given at a dosage of 100 mg/kg from the 13th week as a treatment for 12 weeks. At the end of the experiment, the mice were dissected to obtain livers. A part of the livers was subjected to HE staining and Oli red O staining to quantify the liver lipids and conduct a pathological scoring of liver steatosis of the mice based on the steatosis activity fibrosis (SAF) scoring system.
A part of the livers of the mice in each group mentioned above was taken, RNA and protein were extracted, and the study of the expression of related genes and proteins was conducted to detect the expression levels of lipid metabolism-related genes in liver tissue.
Target of rapamycin (TOR) is a key protein in the control of autophagy, which can sense various change signals of cells and strengthen or reduce the occurrence level of autophagy.

For assay [3] the test system is unchanged. In words: Liver pathology (HE, Oil red O staining, SAF scoring) in mice on high-fat and high-sugar diet. It is filed as in vivo. To be noted: vs high-fat group. As for the experimental part: as §1
Assay [4] shares this test system. The assay is described as follows: Serum enzyme detection in mice on high-fat and high-sugar diet. It is filed as in vivo. To be noted: artemisinin 100 mg/kg for 12 weeks, vs high-fat diet. As for the experimental part: as §1, with “system. […] The serum of each group of mice mentioned above was taken and subjected to serum enzyme detection.” for “system.”
The test system of assay [5] is HepG2 liver cancer cells. In words: qRT-PCR expression of CIDE, AMPK pathway and PPAR pathway genes in FFA-treated HepG2 cells. It is filed as cell-based, human. To be noted: 1 mM/L FFA, 5 μM/L artesunate, 24 h. How it is done: Experimental methods: HepG-2 liver cancer cells with passage times less than 20 times were selected and inoculated into a 12-well plate at a density of 3×10^5 cells/mL. Drug treatment was performed after inoculating for 24 h, and the cells were divided into 3 groups with 4 wells in each group. A complete medium containing 1% bovine serum albumin (BSA) was used as the control group. A complete medium containing 1% BSA and 1 mM/L FFA was used as the high-fat model group. A complete medium containing 1% BSA, 1 mM/L FFA, and 5 μM/L, artesunate was used as the artesunate group. After being treated for 24 h, the cells were collected, and RNA was extracted and reverse-transcribed into cDNA. Quantitative real-time PCR (qRT-PCR) was used to detect the expression of CIDE series genes. AMPK signaling pathway-related genes, and PPAR signaling pathway-related genes in the three groups of cells.

The test system of assay [6] is HepG2 liver cancer cells. The assay is described as follows: Lipid accumulation (triglyceride content, Nile red lipid droplets) in FFA-treated HepG2 liver cancer cells. The following applies: 1 mM/L FFA, 5 μM/L artesunate, 24 h, vs model group. It is filed as cell-based, human.
Where [7] appears, read: vs model group, p<0.001, FIG. 7.

On to `C[C@@H]1CC[C@H]2[C@@H](C)C(=O)O[C@@H]3O[C@@]4(C)CC[C@@H]1[C@]32OO4` [artemisinin], for which the “upstream gene expression levels of genes related to lipid synthesis in liver” value in assay [1] was “inhibited”. In addition, in assay [2], the “mitochondrial dysfunction and autophagy (mitophagy) level in liver” value was “effectively resist the mitochondrial dysfunction and the decrease in the autophagy level”. Besides, the “score of lobular inflammation (SAF scoring system)” value in assay [3] (artemisinin 100 mg/kg for 12 weeks, FIG. 9C) is “significantly reduced”. The “score of ballooning of liver cells (SAF scoring system)” value in assay [3] (artemisinin 100 mg/kg for 12 weeks, FIG. 9D) is recorded as “significantly reduced”. For the same compound, the “liver steatosis (fat blebs, Oil red O staining areas)” value in assay [3] (artemisinin 100 mg/kg from the 13th week for 12 weeks, FIG. 8) is reported as “significantly improve liver steatosis”. In addition, the “ALT level in the serum” value in assay [4] (FIG. 9E) is on record as “significantly reduce the elevation”. In addition, the “AST level in the serum” value in assay [4] (FIG. 9F) is “significantly reduce the elevation”.

Regarding `C[C@H]1[C@H](OC(=O)CCC(=O)O)O[C@@H]2O[C@@]3(C)CC[C@H]4[C@H](C)CC[C@@H]1[C@@]24OO3` [artesunate], the “expression of SREBP1c-ACC/SCD1/FAS genes related to intracellular fatty acid synthesis” value in the assay with HepG2 liver cancer cells [5] (FIG. 5) was “reduce the expression”. Also, in the assay on HepG2 liver cancer cells [5] (setting [7]), the “mRNA level of PPARct.” value was “significantly up-regulated” and the “mRNA level of PPARy” value is “significantly up-regulated”. In addition, in the assay with HepG2 liver cancer cells [5] (vs model group, p<0.01, FIG. 4), the “mRNA level of AMPKα (PRKAA1)” value is “significantly up-regulated”. For the same compound, in the assay on HepG2 liver cancer cells [5] (vs model group, p<0.01, FIG. 6), the “mRNA level of carnitine palmitoyl transferase 1 (CPT-1)” value is recorded as “significantly up-regulated”. For the same compound, in the assay with HepG2 liver cancer cells [5] (vs model group, FIG. 3), the “mRNA expression of Cide-a gene” value was “significantly lower” and the “mRNA expression of Cide-b gene” value is listed as “significantly lower”. Further, the “content of triglyceride (TG) in HepG2 liver cancer cells” value in the assay on HepG2 liver cancer cells [6] (FIG. 1) is recorded as “significantly decreased”. The “number of large lipid droplets (Nile red staining)” value in the assay on HepG2 liver cancer cells [6] (FIGS. 2A-2B) is listed as “decreased”.
